Reference: ChEMBL document CHEMBL1147463, “Synthesis and anticancer activity of side chain analogs of the crambescidin alkaloids” (2004)

What was measured:
Format in all cases: functional
[1] = Human tumor selectivity was measured as zone unit differential between (H116) colon tumor and (CEM) lymphocytic leukemia in disk diffusion soft agar colony formation assay at a concentration of 1 ug/disk
[2] = Human tumor selectivity was measured as zone unit differential between (H125) lung small cell carcinoma and (CEM) lymphocytic leukemia in disk diffusion soft agar colony formation assay at a concentration of 1 ug/disk
[3] = Murine tumor cell selectivity was measured as zone unit differential between (C38) colon adenocarcinoma and (CFU) normal bone marrow in disk diffusion soft agar colony formation assay at a concentration of 1 ug/disk
[4] = Murine tumor cell selectivity was measured as zone unit differential between (C38) colon adenocarcinoma and ([…]) murine cell line in disk diffusion soft agar colony formation assay at a concentration of 1 ug/disk
[5] = Murine tumor cell selectivity was measured as zone unit differential between ([…]) murine cell line and (CFU) normal bone marrow in disk diffusion soft agar colony formation assay at a concentration of 1 ug/disk

SMILES: C=CCOC(=O)[C@H]1[C@H]2CC[C@H]3C[C@@]4(CCC=C[C@H](CC)O4)NC(=[N+]32)N[C@@]12CCC[C@@H](C)O2.[Cl-]
- Selectivity [1]: 0
- Selectivity [2]: 0
- Selectivity [3]: 450
- Selectivity [4]: 350
- Selectivity [5]: 100
